Several values for one entry are separate records, joined by “and”; a condition that tells them apart may be missing. Equal values may be shown once. Read-outs that look alike come from different tables or passages of the source. Each block holds one compound with its values, some of them ahead of it.
Legend:
[1] = molecular target: T1, bovine serum albumin (BSA) (Bos taurus, UniProt P02769); assay: Fluorescence quenching of BSA by CQAs (Stern-Volmer, double-log, Van't Hoff); assay type: binding; conditions: for ΔH / ΔS: 300-310 K; for Kd: read-out: Ka (converted); for λa-λj (shift of BSA fluorescence emission): CQA 0 to 5.0 × 10^−6 M
T1 construct: purchased AMRESCO
Protocol: Fluorescence analysis was determined with the LS-45 fluorophotometer (PerkinElmer, USA). […] The synchronous fluorescence spectrum was recorded at Δλ = 15/60 nm at 300 K. The concentration of BSA was set as 0.2 × 10^−6 M, and the concentrations of CQAs were set as 0~5.0 × 10^−6 M by successive additions. The 3D fluorescence spectrum of BSA (0.2 × 10^−6 M) and the BSA-drug (10:1 mol ratio of protein to ligand) complexes were determined at 200–350 nm in 5 nm increments, and the emission spectrum was set as between 200 and 500 nm.
Static and dynamic quenching were two kinds of quenching mechanisms. Both of them followed the equation of Stern-Volmer (Tang and Jia, [2013]): […]
where F0 and F were the fluorescence intensities of BSA with or without CQAs, respectively; KSV were the Stern-Volmer quenching constants; [Q] was the concentration of CQAs.
Binding constants and binding sites could be determined by double logarithmic curve equation (Hemmateenejad et al., [2012]):
(2) logF0-F/F=logKa+nlog[Q]
where F0 and F were the fluorescence intensities of BSA with or without CQAs, respectively; [Q] was the concentrations of CQAs; Ka was the binding constants and n was the number of binding sites.
The binding force between drugs and BSA was non-covalent interaction, like hydrogen-bond interaction, electrostatic forces, hydrophobic effects and Van der Waals forces (Cheng et al., [2015]). The binding parameters could be employed to determine the types of binding forces. The value of ΔH (enthalpy change) and ΔS (entropy changes) could be determined by Van't Hoff equation: […]
where Ka were the binding constants, R were the gas constants and T was the temperatures. Free energy changes (ΔG) could be determined by the following equation: […]

[2] = molecular target: T2, BSA (Bos taurus, UniProt P02769); assay: CD measurement of BSA secondary structure (α-helix content); design: species or system bovine
T2 construct: purchased AMRESCO
Protocol: The J-815 automatic recording spectropolarimeter (Japan) equipped with 1.0 mm path length quartz cuvettes was employed to determine the CD spectrum of BSA and CQAs-BSA. All the CD spectra were recorded from 190 to 250 nm at 300 K, and the scanning speeds were all set as 50 nm·min^−1. The concentration of BSA and CQAs was 2.0 × 10^−6 and 10.0 × 10^−6 M, respectively. Each spectrum was scanned for successive three times and corrected by corresponding buffer solution.
Far-UV CD spectrum could monitor the secondary structures changes of BSA. To further study the interaction of CQAs and BSA and accurately detect the changes of the secondary structures of BSA, CD spectra of BSA was performed in with or without CQAs in different solvent systems.

[3] = test system: bovine serum albumin; conditions: ref Li et al., 2010; cited from earlier work

T2 sequence (P02769 25-607): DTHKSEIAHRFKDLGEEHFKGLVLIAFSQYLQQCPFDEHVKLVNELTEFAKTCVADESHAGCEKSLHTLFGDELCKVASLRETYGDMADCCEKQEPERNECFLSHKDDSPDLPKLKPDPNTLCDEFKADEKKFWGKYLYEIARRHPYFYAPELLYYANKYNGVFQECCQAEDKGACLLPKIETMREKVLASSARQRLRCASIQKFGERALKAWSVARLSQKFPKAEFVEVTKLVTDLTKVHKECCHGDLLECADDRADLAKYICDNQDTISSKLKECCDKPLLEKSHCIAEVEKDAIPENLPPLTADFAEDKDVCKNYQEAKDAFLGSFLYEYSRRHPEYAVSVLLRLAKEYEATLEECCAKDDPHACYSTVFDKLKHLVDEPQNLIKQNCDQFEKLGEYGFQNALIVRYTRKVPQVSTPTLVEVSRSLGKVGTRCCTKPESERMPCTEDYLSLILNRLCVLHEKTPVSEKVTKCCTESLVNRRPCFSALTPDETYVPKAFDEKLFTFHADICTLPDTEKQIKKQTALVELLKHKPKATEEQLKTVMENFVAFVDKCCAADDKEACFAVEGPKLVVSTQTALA
T1 sequence (P02769 25-607): as above

Fluorescence quenching rate [1]: 40.14% and 32.93%
ΔG ([1]; H2O, 305 K): -8.535 kcal/mol
ΔG ([1]; H2O, 310 K): -8.05 kcal/mol
ΔG ([1]; PBS, 310 K): -8.081 kcal/mol
ΔG ([1]; Tris-HCl, 300 K): -9.498 kcal/mol
increase of α-helix content of BSA ([2]; Tris-HCl buffer): 5.15%
SMILES: O=C(C=Cc1ccc(O)c(O)c1)OC1CC(O)(C(=O)O)CC(O)C1O (stereo not shown) [3-CQA, 3-O-caffeoylquinic acid]

SMILES: O=C(C=Cc1ccc(O)c(O)c1)OC1C(O)CC(O)(C(=O)O)CC1O (stereo not shown) [4-CQA, 4-O-caffeoylquinic acid]
Fluorescence quenching rate ([1]; H2O): 30.99%
ΔH ([1]; H2O): -60.053 kcal/mol
ΔS ([1]; H2O): -705.46 J·mol^−1·k^−1
KSV ([1]; H2O, 300 K): 83600 L/mol
n (number of binding sites) ([1]; H2O, 300 K): 1.3458
ΔG ([1]; H2O, 300 K): -9.469 kcal/mol
Kd ([1]; H2O, 300 K): 173 nM
KSV ([1]; H2O, 305 K): 60500 L/mol
n (number of binding sites) ([1]; H2O, 305 K): 1.3177
ΔG ([1]; H2O, 305 K): -8.626 kcal/mol
Kd ([1]; H2O, 305 K): 347 nM
KSV ([1]; H2O, 310 K): 57700 L/mol
n (number of binding sites) ([1]; H2O, 310 K): 1.1102
ΔG ([1]; H2O, 310 K): -7.784 kcal/mol
Kd ([1]; H2O, 310 K): 4520 nM
λa-λj (shift of BSA fluorescence emission) ([1]; H2O): -5.5 nm
Fluorescence quenching rate ([1]; PBS): 22.65%
ΔH ([1]; PBS): -64.912 kcal/mol
ΔS ([1]; PBS): -774.09 J·mol^−1·k^−1
KSV ([1]; PBS, 300 K): 132900 L/mol
n (number of binding sites) ([1]; PBS, 300 K): 1.3138
ΔG ([1]; PBS, 300 K): -9.407 kcal/mol
Kd ([1]; PBS, 300 K): 175 nM
KSV ([1]; PBS, 305 K): 98000 L/mol
n (number of binding sites) ([1]; PBS, 305 K): 1.2398
ΔG ([1]; PBS, 305 K): -8.482 kcal/mol
Kd ([1]; PBS, 305 K): 532 nM
KSV ([1]; PBS, 310 K): 60000 L/mol
n (number of binding sites) ([1]; PBS, 310 K): 1.0835
ΔG ([1]; PBS, 310 K): -7.557 kcal/mol
Kd ([1]; PBS, 310 K): 5920 nM
λa-λj (shift of BSA fluorescence emission) ([1]; PBS): -4 nm
Fluorescence quenching rate ([1]; Tris-HCl): 35.83%
binding affinity change (times) when temperature rises from 300 to 310 K ([1]; Tris-HCl): 37.4
ΔH ([1]; Tris-HCl): -52.079 kcal/mol
ΔS ([1]; Tris-HCl): -588.56 J·mol^−1·k^−1
KSV ([1]; Tris-HCl, 300 K): 189400 L/mol
n (number of binding sites) ([1]; Tris-HCl, 300 K): 1.4214
ΔG ([1]; Tris-HCl, 300 K): -9.878 kcal/mol
Kd ([1]; Tris-HCl, 300 K): 30.1 nM
KSV ([1]; Tris-HCl, 305 K): 120400 L/mol
n (number of binding sites) ([1]; Tris-HCl, 305 K): 1.2871
ΔG ([1]; Tris-HCl, 305 K): -9.178 kcal/mol
Kd ([1]; Tris-HCl, 305 K): 238 nM
KSV ([1]; Tris-HCl, 310 K): 47100 L/mol
n (number of binding sites) ([1]; Tris-HCl, 310 K): 1.2434
ΔG ([1]; Tris-HCl, 310 K): -8.473 kcal/mol
Kd ([1]; Tris-HCl, 310 K): 1130 nM
λa-λj (shift of BSA fluorescence emission) ([1]; Tris-HCl): 3.5 nm
increase of α-helix content of BSA ([2]; H2O): 4.84%
increase of α-helix content of BSA ([2]; PBS buffer): 1.97%
increase of α-helix content of BSA ([2]; Tris-HCl buffer): 14.14%

Fluorescence quenching rate [1]: 35.34% and 32.09%
n (number of binding sites) [1]: 0.9251
ΔG ([1]; Tris-HCl, 300 K): -10.18 kcal/mol
ΔG ([1]; Tris-HCl, 305 K): -9.252 kcal/mol
ΔG ([1]; Tris-HCl, 310 K): -8.325 kcal/mol
increase of α-helix content of BSA ([2]; H2O): 0.69%
increase of α-helix content of BSA ([2]; PBS buffer): 0.08%
increase of α-helix content of BSA ([2]; Tris-HCl buffer): 8.16%
SMILES: O=C(/C=C/c1ccc(O)c(O)c1)O[C@@H]1C[C@](O)(C(=O)O)C[C@@H](O)[C@H]1O [5-CQA, 5-O-caffeoylquinic acid]
binding constant [3]: higher than that of caffeic acid
